# Key:
# [1] = tested on: fibrin formation in the rabbit anterior chamber; experiment: Fibrin formation in the anterior chamber caused by laser irradiation (slit lamp microscope); format: in vivo, pigmented rabbits; conditions: 0.1 mg/kg/minute intravenously, 30 minutes after the irradiation
# Experimental: In this example, a model of fibrin formation in the rabbit anterior chamber caused by laser irradiation was used as a measure for testing the action of argatroban. In this model, the seriousness of inflammation and amount of fibrin are determined proportional to the total energy of the laser irradiation. The amount of fibrin can be controled to the desired value by altering total energy of laser irradiation.
# (§1) Matured pigmented rabbits (Dutch rabbits of 2 kg body weight) were irradiated with laser at the iris using an argon laser equipment (product of NIDEK). In one group of the rabbits on the eyes, 8 irradiation points at the same interval on a circle line were made under the conditions of coagulation size of 50 micrometer, output of 1.0 Watt and irradiation time of 0.1 second (condition A). In other group of the rabbits, 8 irradiation points similar to those on the eyes were made under the conditions of coagulation size of 200 micrometer, output of 1.0 Watt and irradiation time of 0.2 second (condition B).
# From 30 minutes prior to and until 30 minutes after irradiations, 0.1 mg/kg/minute of argatroban was administered intravenously from ear vein. Control group received only laser irradiation. Positive control group received 1000 U/kg of heparin intravenously 30 minutes prior to laser irradiation. […]
# The fibrin formation was recorded photographically using a slit lamp microscope.
# [2] = tested on: flare increase in the anterior chamber; experiment: Anterior chamber flare after argon laser irradiation (flare cell meter); format: in vivo, pigmented rabbits; conditions: condition B
# From the text: as §1
# From 30 minutes prior to and until 30 minutes after irradiations, 0.1 mg/kg/minute of argatroban was administered intravenously from ear vein. Control group received only laser irradiation. Positive control group received 1000 U/kg of heparin intravenously 30 minutes prior to laser irradiation.
# For argatroban eye drop, right eyes of the rabbits received 5 mg/ml solution of argatroban, while left eyes were used as a control without application of argatroban.
# Further, the laser irradiation of condition B was effected and then the anterior chamber flare values were estimated using the flare cell meter at 30 minutes and 60 minutes after the irradiation.
# The flare cell meter measures turbidity in the anterior chamber as the photon count. […]
# [3] = tested on: fibrin formation in the anterior chamber; experiment: Fibrin formation by administering self-plasma to the anterior chamber; format: in vivo, white rabbits; conditions: 150 microliter plasma and 50 microliter argatroban solution (10 mg/ml) injected to the anterior chamber; 24 hours after the administration
# Experimental: Blood of matured white rabbits (2 kg in body weight) were taken and separated to give plasma. Two hundreds microliter of anterior chamber liquid was taken by conducting centesis into anterior chamber of the same rabbit. Then, 150 microliter of the plasma obained and 50 microliter of argatroban solution (10 mg/ml), 200 microliter in total, were injected to the anterior chamber from the same centesis portion. The control received 150 microliter of plasma and 50 microliter of physiological saline in the same manner at the anterior chamber. The fibrin formation in the anterior chamber 24 hours after the administration was observed and recorded.
# [4] = LD50 (acute toxicity), mouse; conditions: in vivo
# From the text: (§2) In the following Table 2, the toxicological data of argatroban is shown.
# [5] = LD50 (acute toxicity), rat; conditions: in vivo
# From the text: as §2
# [6] = LD50 (acute toxicity), dog; format: in vivo; conditions: in vivo, iv, Male, i. v.
# From the text: as §2
# [7] = tested on: dog; experiment: LD50 (acute toxicity), dog; format: in vivo; conditions: Female, i. v.
# From the text: as §2
smiles,measurement,setting,value
"CC1CNc2c(cccc2S(=O)(=O)N[C@@H](CCCNC(=N)N)C(=O)N2CC[C@@H](C)C[C@@H]2C(=O)O)C1.O (mixture of isomers) [argatroban, (2R,4R)-4-methyl-1-[N^2-((RS)-3-methyl-1,2,3,4-tetrahydro-8-quinolinesulfonyl)-L-arginyl]-2-piperidinecarboxylic acid hydrate]",fibrin formation,[1]; condition A,no fibrin formation was also observed
same,fibrin formation,[1]; condition B,no fibrin formation was also observed
same,photon count (/msec),"[2]; eye drop, solution of 5 mg/ml, 30 minutes after laser irradiation",287.7 ± 99.2 (n=4) /msec
same,photon count (/msec),"[2]; eye drop, solution of 5 mg/ml, 60 minutes after laser irradiation",341.2 ± 86.5 (n=4) /msec
same,photon count (/msec),"[2]; intravenous injection at 0.1 mg/kg/min, 30 minutes after laser irradiation",417.7 ± 159.3 (n=4) /msec
same,photon count (/msec),"[2]; intravenous injection at 0.1 mg/kg/min, 60 minutes after laser irradiation",356.9 ± 168.3 (n=4) /msec
same,fibrin formation,[3],No fibrin formation was observed
same,LD50,"[4]; ip, Female, i. p.",640 mg/kg
same,LD50,"[4]; ip, Male, i. p.",475 mg/kg
same,LD50,"[4]; iv, Female, i. v.",> 81 mg/kg
same,LD50,"[4]; iv, Male, i. v.",> 81 mg/kg
same,LD50,"[4]; po, Female, p. o.",> 15000 mg/kg
same,LD50,"[4]; po, Male, p. o.",> 15000 mg/kg
same,LD50,"[4]; sc, Female, subc.",3900 mg/kg
same,LD50,"[4]; sc, Male, subc.",3750 mg/kg
same,LD50,"[5]; ip, Female, i. p.",409 mg/kg
same,LD50,"[5]; ip, Male, i. p.",320 mg/kg
same,LD50,"[5]; iv, Female, i. v.",> 81 mg/kg
same,LD50,"[5]; iv, Male, i. v.",> 81 mg/kg
same,LD50,"[5]; po, Female, p. o.",> 15000 mg/kg
same,LD50,"[5]; po, Male, p. o.",> 15000 mg/kg
same,LD50,"[5]; sc, Female, subc.",620 mg/kg
same,LD50,"[5]; sc, Male, subc.",700 mg/kg
same,LD50,[6],> 200 mg/kg
same,LD50,[7],> 200 mg/kg
